Measured values: patent US20230081132A1 (priority 2021, published 2023)
Values after ≈ are worked out from the molar mass of the structure shown. Values joined by “and” are separate entries in the source; they are usually repeats but may differ in a detail not shown here. Equal values may be shown once.

What was measured:
Format in all cases: binding
[1] = system: TTX monoclonal antibody
[2] = system: TTX monoclonal antibody; remark: listed apart in the source
[3] = system: TTX monoclonal antibody; remark: listed apart in the source

Compound	FLT (a.u.) [1]	competitive inhibition rate (1-T/T0) [2]	fluorescence signal value of detection line [2]	IC50 [3]
C/C(=C/C=C/[C@@H](C)C(=O)O)[C@H]1CN[C@H](C(=O)O)[C@H]1CC(=O)O [DA]	503422 a.u. and 504729 a.u. and 501687 a.u. and 506770 a.u. and 503922 a.u. and 508625 a.u.	–	–	–
NC1=N[C@H](O)[C@H]2[C@H]3O[C@]4(O)O[C@@H]([C@@H](O)[C@@]2(N1)[C@@H]4O)[C@]3(O)CO [TTX, Tetrodotoxin]	–	0.3	343000 a.u.	1.713 ng/mL (≈ 5.37 nM)
MC-LR	452864 a.u. and 478692 a.u. and 475179 a.u. and 469265 a.u. and 465390 a.u. and 480375 a.u.	–	–	–
